One data set concerns P. falciparum. The note with it: read-out: EC50 against P. falciparum; ref 8j; cited from earlier work.
The subject of data set [1] is MtDXR. The note with it: read-out: MtDXR IC50; using […] of Mn2+; cited from earlier work.
For data set [2] the following is noted: background statement, no reference given; cited from earlier work.
Data set [3] addresses M. tuberculosis DXR (MtDXR) (Mycobacterium tuberculosis, UniProt P9WNS1). Type of data set: biochemical. The note with it: for times less active against MtDXR than 1 and 2: compared with parent compounds 1 and 2; for Ki: read-out: MtDXR Ki.
The test system of another data set is DXR. The conditions noted are these: read-out: DXR IC50; ref 9b; cited from earlier work.
The next data set addresses E. coli DXR (EcDXR) (Escherichia coli, UniProt P45568). Briefly: biochemical. Type of data set: biochemical.
In data set [4] the test system is MtDXR. The conditions noted are these: read-out: Km of substrate for MtDXR; ref 2d; cited from earlier work.
The next data set has as its system EcDXR. The conditions noted are these: read-out: Km of substrate for EcDXR; cited from earlier work.

Values joined by “and” are separate entries in the source; they are usually repeats but may differ in a detail not shown here. Identical values can stand only once. Counter-ions that a name gives are not always drawn. Like-named read-outs stand apart in the source and are kept apart here.

Chain of M. tuberculosis DXR (MtDXR) (P9WNS1 whole entry, looked up): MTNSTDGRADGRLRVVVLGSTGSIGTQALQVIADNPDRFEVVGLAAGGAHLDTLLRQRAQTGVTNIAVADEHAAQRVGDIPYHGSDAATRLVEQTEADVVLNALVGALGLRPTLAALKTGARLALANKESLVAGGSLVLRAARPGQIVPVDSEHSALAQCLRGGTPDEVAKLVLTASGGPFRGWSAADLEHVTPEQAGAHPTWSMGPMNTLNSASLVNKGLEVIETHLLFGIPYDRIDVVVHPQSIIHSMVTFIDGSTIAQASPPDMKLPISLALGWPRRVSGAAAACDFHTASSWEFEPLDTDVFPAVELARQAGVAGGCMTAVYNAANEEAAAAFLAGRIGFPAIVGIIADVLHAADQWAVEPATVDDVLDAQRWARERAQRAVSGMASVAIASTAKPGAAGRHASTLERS
Chain of E. coli DXR (EcDXR) (P45568 whole entry): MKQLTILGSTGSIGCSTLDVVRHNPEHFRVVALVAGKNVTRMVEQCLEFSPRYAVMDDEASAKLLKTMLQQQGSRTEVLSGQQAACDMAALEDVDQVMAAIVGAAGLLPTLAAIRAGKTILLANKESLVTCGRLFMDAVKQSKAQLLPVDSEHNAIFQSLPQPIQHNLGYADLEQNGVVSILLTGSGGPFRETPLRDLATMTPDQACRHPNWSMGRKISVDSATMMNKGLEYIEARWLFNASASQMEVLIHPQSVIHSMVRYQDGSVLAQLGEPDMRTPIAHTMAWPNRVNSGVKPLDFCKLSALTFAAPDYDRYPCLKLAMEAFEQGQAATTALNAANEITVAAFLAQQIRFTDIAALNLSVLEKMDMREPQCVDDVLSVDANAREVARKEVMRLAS

Regarding `O=CN(O)CCCP(=O)(O)O` [Compound 1, Fosmidomycin], the EC50 (usually the concentration giving half of the maximal effect) in the data set on P. falciparum is 1.1 µM. In addition, the IC50 (commonly the concentration at which inhibition is half-maximal) with MtDXR [1] is 0.08 µM. In data set [2], the half-life in plasma is ~ 1 h and the oral availability entry is listed as “poor oral availability”. In data set [3] (Ki MtDXR vs Ki EcDXR), the “times weaker binding / less active against MtDXR than EcDXR” value (shortened to “times weaker binding / less active”) is ~ 5 × and 5 ×.
As to `CC(=O)N(O)CCCP(=O)(O)O` [Compound 2, FR900098, reference compound], in data set [3], the “times weaker binding / less active” value is ~ 6 ×.
For the molecule `O=CN(O)CCC(c1ccc(Cl)c(Cl)c1)P(=O)(O)O` (stereo not shown) [Compound 3, reference compound], the EC50 in the data set with P. falciparum was 0.09 µM. Besides, the “affinity loss to MtDXR compared to EcDXR” value in data set [3] (Ki MtDXR vs Ki EcDXR) is recorded as 21 fold. For the same molecule, the “times less active against MtDXR than 1 and 2” value in data set [3] is ~ 10 ×.
With `CC(=O)N(O)CCC(c1ccc(Cl)c(Cl)c1)P(=O)(O)O` (stereo not shown) [Compound 4, reference compound], the EC50 with P. falciparum was 0.25 µM. Also, in data set [3] (Ki MtDXR vs Ki EcDXR), the “affinity loss to MtDXR compared to EcDXR” value worked out at 42 fold. The “times less active against MtDXR than 1 and 2” value in data set [3] is ~ 10 × and 10 ×.
With `O=P(O)(O)C(Nc1ccc(Cl)cn1)P(=O)(O)O` [Compound 6, reference compound], in data set [3], the “times weaker binding / less active” value is on record as above 5 × and the Ki – broadly, a dissociation constant, usually derived from enzyme kinetics or from competition with a known ligand – is above 100 µM.
Turning to `O=c1ccc(-c2ccccc2)cn1O` [Compound 7, reference compound], the IC50 with DXR was 1.4 µM. Besides, the “times weaker binding / less active” value in data set [3] (Ki MtDXR vs Ki EcDXR) stood at 31 ×.
For the molecule `O=P(O)(O)Cc1ccc(-c2ccccc2)cn1` [Compound 9, 5-phenylpyridin-2-ylmethylphosphonic acid], the “affinity loss to MtDXR compared to EcDXR” value in data set [3] (Ki MtDXR vs Ki EcDXR) was found to be 7 fold. Further, the “times as potent as 8 against EcDXR” value on E. coli DXR (EcDXR) turned out to be 5 ×.
For the molecule `O=P(O)(O)c1ccccn1` [Compound 11, Pyridin-2-ylphosphonic acid disodium salt], the Ki was above 100 µM in data set [3], above 49.7 µM on E. coli DXR (EcDXR) and above 100 µM at E. coli DXR (EcDXR) (read-out: EcDXR Ki). The “inhibitory activity against EcDXR (in words)” value on E. coli DXR (EcDXR) (up to 100 μM) was “essentially no activity”.
With `O=P(O)(O)CCc1ccccn1` [Compound 12, 2-(Pyridin-2-yl)ethylphosphonic acid disodium salt], the Ki in data set [3] was above 100 µM. Further, the “times less potent than 8 against EcDXR” value on E. coli DXR (EcDXR) (Ki ratio to compound 8) is listed as ~ 8 ×.
For `O=P(O)(O)CCCc1ccccn1` [Compound 13, 3-(Pyridin-2-yl)propylphosphonic acid disodium salt], the Ki in data set [3] is above 100 µM. The “times less potent than 8 against EcDXR” value on E. coli DXR (EcDXR) (Ki ratio to compound 8) is given as around 4 ×.
Turning to `O=P(O)(O)Cc1cccnc1` [Compound 14], the Ki in data set [3] is above 100 µM.
Consider `O=P(O)(O)Cc1cnccn1` [Compound 16, Pyrazin-2-ylmethylphosphonic acid disodium salt], for which, in data set [3], the inhibitory constant (Ki) was above 100 µM.
With `O=P(O)(O)c1ccccc1` [Compound 18, Phenylphosphonic acid disodium salt], the Ki in data set [3] is above 100 µM; at E. coli DXR (EcDXR) it was above 49.7 µM; at E. coli DXR (EcDXR) (read-out: EcDXR Ki) it was above 100 µM.
`O=P(O)(O)Cc1ccccc1` [Compound 19, Benzylphosphonic acid disodium salt]: the Ki in data set [3] was above 100 µM; on E. coli DXR (EcDXR), above 49.7 µM; at E. coli DXR (EcDXR) (read-out: EcDXR Ki) it was above 100 µM.
Regarding `O=P(O)(O)CCc1ccccc1` [Compound 20, 2-Phenylethylphosphonic acid disodium salt], the Ki is above 100 µM in data set [3], above 49.7 µM on E. coli DXR (EcDXR) and above 100 µM at E. coli DXR (EcDXR) (read-out: EcDXR Ki).
Turning to `O=P(O)(O)Cc1ccc(Cl)c(Cl)c1` [Compound 21], the “inhibitory activity against MtDXR (in words)” value in data set [3] is on record as “essentially no activity”. The Ki is above 100 µM in data set [3], above 49.7 µM at E. coli DXR (EcDXR) and above 100 µM at E. coli DXR (EcDXR) (read-out: EcDXR Ki). In addition, the “inhibitory activity against EcDXR (in words)” value at E. coli DXR (EcDXR) (up to 100 μM) is given as “essentially no activity”.
With `O=P(O)(O)CCc1ccccc1O` [Compound 22, 2-(2-Hydroxyphenyl)ethylphosphonic acid disodium salt], the inhibition constant Ki in data set [3] was above 100 µM; on E. coli DXR (EcDXR), above 49.7 µM; on E. coli DXR (EcDXR) (read-out: EcDXR Ki), above 100 µM. At E. coli DXR (EcDXR) (up to 100 μM), the “inhibitory activity against EcDXR (in words)” value was “no inhibitory activity”.
`O=P(O)(O)Cc1cccc(O)c1O` [Compound 23]: the Ki in data set [3] was above 100 µM; at E. coli DXR (EcDXR) it was above 49.7 µM; at E. coli DXR (EcDXR) (read-out: EcDXR Ki) it was above 100 µM. The “inhibitory activity against EcDXR (in words)” value at E. coli DXR (EcDXR) (up to 100 μM) is listed as “no inhibitory activity”.
Take `O=c1ccc(CP(=O)(O)O)cn1O` [Compound 24, 5-(1-Hydroxy-pyridin-2-one)methylphosphonic acid disodium salt]: at E. coli DXR (EcDXR), the inhibition constant (Ki) was above 49.7 µM. On E. coli DXR (EcDXR) (up to 100 μM), the “inhibitory activity against EcDXR (in words)” value is “essentially inactive”.
The molecule `O=c1cccc(CCP(=O)(O)O)[nH]1` [Compound 25, 2-(Pyridin-2-one-6-yl)ethylphosphonic acid disodium salt] registered a Ki at E. coli DXR (EcDXR) above 49.7 µM. At E. coli DXR (EcDXR) (up to 100 μM), the “inhibitory activity against EcDXR (in words)” value was “essentially inactive”.
`O=P(O)(O)Cc1cc(-c2ccc(F)cc2)ccn1` [Compound 28, 4-(4-Fluorophenyl)pyridin-2-ylmethylphosphonic acid disodium salt]: the Ki in data set [3] is above 100 µM.
On to `O=P(O)(O)Cc1ccc(O)cn1` [Compound 30, (5-Hydroxylpyridin-2-yl)methylphosphonic acid disodium salt], for which the “times as potent as 8 against EcDXR” value at E. coli DXR (EcDXR) (Ki ratio to compound 8) is on record as ~ 3 ×.
Regarding `O=P(O)(O)Cc1ccc(OCc2ccccc2)cn1` [Compound 31, (5-Benzyloxypyridin-2-yl)methylphosphonic acid disodium salt], the Ki in data set [3] was above 100 µM; at E. coli DXR (EcDXR), above 49.7 µM; on E. coli DXR (EcDXR) (read-out: EcDXR Ki), above 100 µM. For the same molecule, the “inhibitory activity against EcDXR (in words)” value against E. coli DXR (EcDXR) was “inactive”.
On to `O=P(O)(O)Cc1cccc(-c2ccccc2)n1` [Compound 33, (6-Phenylpyridin-2-yl)methylphosphonic acid disodium salt], for which the Ki in data set [3] is above 100 µM.
For the molecule `O=P(O)(O)Cc1ccc(-c2ccc(Cl)cc2)cn1` [Compound 35, 5-(4-Chlorophenyl)pyridin-2-ylmethylphosphonic acid disodium salt], the Ki in data set [3] was above 100 µM.
Turning to `Cc1ccc(-c2ccc(CP(=O)(O)O)nc2)cc1` [Compound 36, 5-(4-Methylphenyl)pyridin-2-ylmethylphosphonic acid disodium salt], the Ki in data set [3] is above 100 µM.
In the case of `COc1cccc(-c2ccc(CP(=O)(O)O)nc2)c1` [Compound 37, 5-(3-Methoxyphenyl)pyridin-2-ylmethylphosphonic acid disodium salt], the Ki in data set [3] was above 100 µM.
On to `O=C(O)c1ccccn1` [Compound 39], for which the Ki was above 100 µM in data set [3], above 49.7 µM at E. coli DXR (EcDXR) and above 100 µM on E. coli DXR (EcDXR) (read-out: EcDXR Ki).
Consider `O=C(O)Cc1ccccn1` [Compound 40], for which the Ki is above 100 µM in data set [3], above 49.7 µM on E. coli DXR (EcDXR) and above 100 µM at E. coli DXR (EcDXR) (read-out: EcDXR Ki).
Take `O=C(O)Cc1cccnc1` [Compound 41]: the values for the Ki (in data set [3]; at E. coli DXR (EcDXR); on E. coli DXR (EcDXR) (read-out: EcDXR Ki)) were above 100 µM, above 49.7 µM and above 100 µM, respectively.
For `O=C(O)Cc1ccncc1` [Compound 42], the Ki was above 100 µM in data set [3], above 49.7 µM at E. coli DXR (EcDXR) and above 100 µM at E. coli DXR (EcDXR) (read-out: EcDXR Ki).
At E. coli DXR (EcDXR), `O=C(NO)c1ccccn1` [Compound 43, N-hydroxy-pyridine-2-carboxamide] showed a Ki above 49.7 µM.
In the case of `O=C(Cc1ccccn1)NO` [Compound 44, N-hydroxy-(pyridin-2-yl)acetamide], the Ki on E. coli DXR (EcDXR) was above 49.7 µM.
For the molecule `O=C(O)c1ccc(-c2ccccc2)cn1` [Compound 45, 5-Phenylpyridine-2-carboxylic acid], the inhibition constant (Ki) is above 100 µM in data set [3], above 49.7 µM at E. coli DXR (EcDXR) and above 100 µM at E. coli DXR (EcDXR) (read-out: EcDXR Ki).
At E. coli DXR (EcDXR), `O=C(O)Cc1ccc(-c2ccccc2)cn1` [Compound 46, (5-Phenylpyridin-2-yl)acetic acid] registered a Ki above 49.7 µM.
Molecule `O=C(Cc1ccc(-c2ccccc2)cn1)NO` [Compound 47, N-hydroxy-(5-phenylpyridin-2-yl)acetamide] gave a Ki on E. coli DXR (EcDXR) above 49.7 µM.
`O=S(=O)(O)Cc1ccc(-c2ccccc2)cn1` [Compound 48, 5-Phenylpyridin-2-ylmethanesulfonic acid sodium salt]: the figures for the Ki (in data set [3]; at E. coli DXR (EcDXR); at E. coli DXR (EcDXR) (read-out: EcDXR Ki)) were above 100 µM, above 49.7 µM and above 100 µM, respectively.
Take `CC(=O)[C@@H](O)[C@H](O)COP(=O)(O)O` [DXP, 1-deoxy-D-xylulose-5-phosphate]: the Km (commonly the concentration of substrate that gives half-maximal velocity) in the data set on MtDXR [4] is 47.1 µM; with EcDXR, 99 µM.

The values are drawn from article PMC3601441 (Journal of medicinal chemistry, 2011).
